Data from US10111874B2, “Combination therapies for treatment of cancer” (Araxes Pharma LLC, priority 2014, dated 2018).

These compounds were tested against T1, KRAS G12C 1-169, his-tagged protein, GDP-loaded (Homo sapiens, UniProt P01116, G12C) (assay: Biochemical assay: covalent binding to KRAS G12C analyzed by mass spectrometry). Settings: compounds 48-246, measured at 2 h.
T1 construct: KRAS G12C 1-169, his-tagged protein, GDP-loaded
Note: test concentration or dose not given here.

T1 sequence (P01116 1-169 isoform P01116-2 G12C): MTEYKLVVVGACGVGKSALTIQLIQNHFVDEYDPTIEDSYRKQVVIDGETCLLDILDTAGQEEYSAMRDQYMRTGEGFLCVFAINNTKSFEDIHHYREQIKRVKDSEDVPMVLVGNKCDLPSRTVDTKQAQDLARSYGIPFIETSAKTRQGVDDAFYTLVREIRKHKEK

**Q.** How did the Binding % turn out when `C=CC(=O)N1CCN(c2ncnc3cc(-c4ccccc4C4(C#N)CC4)c(Cl)cc23)CC1` [Compound I-175, 1-(2-(4-(4-acryloylpiperazin-1-yl)-6-chloroquinazolin-7-yl)phenyl)cyclopropanecarbonitrile] was run?
**A.** Its Binding % is “+++ (+++indicates binding activity greater than 50% and up to 75%)”.

**Q.** With `C=CC(=O)N1CCN(c2ncnc3cc(-c4cnc(N)nc4C)c(Cl)cc23)CC1` [Compound I-190, 1-(4-(7-(2-amino-4-methylpyrimidin-5-yl)-6-chloroquinazolin-4-yl)piperazin-1-yl)prop-2-en-1-one] as the compound, how does the Binding % read?
**A.** Its Binding % is “+ (+indicates binding activity from 5% to 25%)”.

**Q.** How did the Binding % turn out when `C=CC(=O)N1CCN(c2ncnc3cc(-c4ccccc4)c(Cl)cc23)CC1CC#N` (stereo not shown) [Compound I-85, 2-(1-acryloyl-4-(6-chloro-7-phenylquinazolin-4-yl)piperazin-2-yl)acetonitrile] was run?
**A.** Its Binding % is “+++ (+++indicates binding activity greater than 50% and up to 75%)”.

**Q.** Which Binding % does the source give for `C=CC(=O)N1CCN(c2ncnc3cc(-c4ccc5cn[nH]c5c4)c(Cl)cc23)CC1` [Compound I-162, 1-(4-(6-chloro-7-(1H-indazol-6-yl)quinazolin-4-yl)piperazin-1-yl)prop-2-en-1-one] here?
**A.** The Binding % was “+ (+indicates binding activity from 5% to 25%)”.

**Q.** `C=CC(=O)N1CCN(c2ncnc3cc(Cl)c(C#N)cc23)CC1C#N` (stereo not shown) [Compound I-53, 4-(4-acryloyl-3-cyanopiperazin-1-yl)-7-chloroquinazoline-6-carbonitrile] was tested. Which Binding % did it give?
**A.** The Binding % was “++++ (++++indicates binding activity greater than 75%)”.

**Q.** How did the Binding % turn out when `C=CC(=O)N1CCN(c2ncnc3cc(-c4c(OC)ccc5[nH]ncc45)c(Cl)cc23)CC1` [Compound I-244, 1-(4-(6-chloro-7-(5-methoxy-1H-indazol-4-yl)quinazolin-4-yl)piperazin-1-yl)prop-2-en-1-one] was run?
**A.** The Binding % was “+ (+indicates binding activity from 5% to 25%)”.

Same assay, conditions: compounds 247-342, measured at 30 min

**Q.** `C=CC(=O)N1CCN(c2nc(NCCN(C)C)nc3c(F)c(-c4c(C)ccc5[nH]ncc45)c(Cl)cc23)CC1` [Compound I-253] was tested. Which Binding % did it give?
**A.** The Binding % was “++++ (++++indicates binding activity greater than 75%)”.

**Q.** For `C=CC(=O)N1CCN(c2ncnc3c(O)c(-c4ccc(F)cc4F)c(Cl)cc23)CC1` [Compound 321, 1-(4-(6-chloro-7-(2,4-difluorophenyl)-8-hydroxyquinazolin-4-yl)piperazin-1-yl)prop-2-en-1-one], which Binding % is on record?
**A.** Its Binding % is “+ (+indicates binding activity from 5% to 25%)”.

**Q.** How did the Binding % turn out when `C=CC(=O)N1CCN(c2ncnc3c(F)c(-c4c(O)cc(F)cc4F)c(Cl)cc23)CC1` [Compound I-280, 1-(4-(6-chloro-7-(2,4-difluoro-6-hydroxyphenyl)-8-fluoroquinazolin-4-yl)piperazin-1-yl)prop-2-en-1-one] was run?
**A.** The Binding % was “+++ (+++indicates binding activity greater than 50% and up to 75%)”.

**Q.** Which Binding % does the source give for `C=CC(=O)N1CCN(c2ncnc3cc(-c4c(O)ccc5c4CCCC5)c(Cl)cc23)CC1` [Compound I-250, 1-(4-(6-chloro-7-(2-hydroxy-5,6,7,8-tetrahydronaphthalen-1-yl)quinazolin-4-yl)piperazin-1-yl)prop-2-en-1-one] here?
**A.** The Binding % was “++ (++indicates binding activity greater than 25% and up to 50%)”.

**Q.** `C=CC(=O)N1CCN(c2ncnc3c(F)c(-c4ccc(F)cc4F)c(C)cc23)CC1` [Compound I-292, 1-(4-(7-(2,4-difluorophenyl)-8-fluoro-6-methylquinazolin-4-yl)piperazin-1-yl)prop-2-en-1-one] was tested. Which Binding % did it give?
**A.** Its Binding % is “+ (+indicates binding activity from 5% to 25%)”.

Same assay, conditions: determined at 2 hrs

**Q.** `C=CC(=O)N1CC(N2CCN(C(=O)CNc3cc(CC(F)(F)F)c(Cl)cc3O)CC2)C1` [II-57, 1-(3-(4-(2-((4-Chloro-2-hydroxy-5-(2,2,2-trifluoroethyl)phenyl)amino)acetyl)piperazin-1-yl)azetidin-1-yl)prop-2-en-1-one] was tested. Which Binding % did it give?
**A.** Its Binding % is “++ (++indicates binding activity greater than 20%)”.

Same assay, conditions: determined at 24 hrs

**Q.** Which Binding % does the source give for `C=CC(=O)N1CCN(C(=O)c2cc(-c3cc(Cl)ccc3Cl)c(Cl)cc2OC)C(CO)C1` (stereo not shown) [III-7, 1-(3-(Hydroxymethyl)-4-(2′,5′,6-trichloro-4-methoxy-[1,1′-biphenyl]-3-carbonyl)piperazin-1-yl)prop-2-en-1-one] here?
**A.** The Binding % was “+++ (+++indicates binding activity greater than 20% and up to 30%)”.
